# According to patent publication US12391679B2, “Benzamide-substituted bicyclic imidazo- and pyrazolo-fused -pyridine, -pyrimide, and -pyridazine compounds for treatment of inflammatory diseases” (ONCO3R Therapeutics BV, priority 2019, dated 2025):
# Key:
# [1] = system: LPS-induced TNFα in monocyte-derived macrophages; assay: MdM assay: LPS-triggered TNFα (ELISA); type: cell-based, human; settings: Macrophage; human MdM; LPS 200 ng/mL; supernatant after 20 h; inhibition of TNFα; read-out: TNFα EC50
# Summary of the method: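 TNFα secretion quantified by streptavidin-HRP/luminol sandwich ELISA in supernatants collected 20 h after LPS (200 ng/mL). Macrophages derived from magnetically isolated human CD14+ monocytes were used at day 10, with compound added 1 h before LPS; final DMSO 0.2%.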
# SIK2 = target: T1, SIK2 (Homo sapiens, UniProt Q9H0K1); assay: ADP-Glo kinase assay, SIK2; type: biochemical
# T1 construct: purchased ThermoFisher Scientific PV4792
# Summary of the method: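 Kinase reactions ran 120 min at room temperature after ATP addition to enzyme-substrate mix. Remaining ATP was depleted (40 min) and ADP converted to ATP for luciferase detection (30 min), signal rising with activity. Final 1% DMSO and 10 μM staurosporine served as negative and positive controls.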
# T1 sequence (Q9H0K1 whole entry): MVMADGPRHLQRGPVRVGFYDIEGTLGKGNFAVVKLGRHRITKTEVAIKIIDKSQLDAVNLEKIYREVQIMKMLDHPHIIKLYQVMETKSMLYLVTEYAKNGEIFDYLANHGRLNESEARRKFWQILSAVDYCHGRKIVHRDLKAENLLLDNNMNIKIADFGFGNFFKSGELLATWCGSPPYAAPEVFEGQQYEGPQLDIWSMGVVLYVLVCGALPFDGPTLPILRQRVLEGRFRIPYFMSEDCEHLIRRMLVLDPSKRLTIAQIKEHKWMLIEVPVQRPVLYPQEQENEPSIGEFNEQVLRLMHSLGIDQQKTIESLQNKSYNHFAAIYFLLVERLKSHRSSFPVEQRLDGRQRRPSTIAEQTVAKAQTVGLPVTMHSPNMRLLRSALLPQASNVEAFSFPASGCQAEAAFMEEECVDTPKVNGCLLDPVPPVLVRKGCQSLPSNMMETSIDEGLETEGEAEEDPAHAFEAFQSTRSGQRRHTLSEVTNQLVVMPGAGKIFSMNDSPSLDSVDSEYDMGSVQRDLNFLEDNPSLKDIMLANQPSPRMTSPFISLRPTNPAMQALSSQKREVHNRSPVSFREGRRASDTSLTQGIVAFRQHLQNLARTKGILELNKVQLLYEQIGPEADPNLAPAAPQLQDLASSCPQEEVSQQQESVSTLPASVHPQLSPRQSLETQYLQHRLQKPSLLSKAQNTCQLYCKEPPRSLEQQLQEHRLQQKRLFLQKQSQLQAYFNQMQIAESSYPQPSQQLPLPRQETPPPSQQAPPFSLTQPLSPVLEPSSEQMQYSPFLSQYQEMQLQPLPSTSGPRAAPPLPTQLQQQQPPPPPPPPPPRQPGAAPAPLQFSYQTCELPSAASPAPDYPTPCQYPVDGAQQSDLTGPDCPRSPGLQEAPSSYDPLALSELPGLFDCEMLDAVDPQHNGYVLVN
SMILES,EC50 [1] [nM],IC50 (SIK2) [nM]
"COc1cc(-c2cnc3cc(C(C)(C)O)ccn23)cc(OC(F)F)c1C(=O)N[C@@H]1C[C@@H]1F [Cpd 211, 2-(difluoromethoxy)-N-[(1R,2S)-2-fluorocyclopropyl]-4-[7-(1-hydroxy-1-methyl-ethyl)imidazo[1,2-a]pyridin-3-yl]-6-methoxy-benzamide]",100 to 1000,100 to 500
"COc1cc(-c2cnn3cc(C4COC4)ccc23)cc(OC(F)F)c1C(=O)NC1CC1 [Cpd 216, N-cyclopropyl-2-(difluoromethoxy)-6-methoxy-4-[6-(oxetan-3-yl)pyrazolo[1,5-a]pyridin-3-yl]benzamide]",100 to 1000,100 to 500
"COc1cc(-c2cnn3cc(C4COC4)ccc23)cc(OC(F)F)c1C(=O)N[C@@H]1C[C@@H]1F [Cpd 218, 2-(difluoromethoxy)-N-[(1R,2S)-2-fluorocyclopropyl]-6-methoxy-4-[6-(oxetan-3-yl)pyrazolo[1,5-a]pyridin-3-yl]benzamide]",100 to 1000,10 to 100
"COc1cc(-c2cnc3cc(C4(F)COC4)ccn23)cc(OC(F)F)c1C(=O)N[C@@H]1C[C@@H]1F [Cpd 224, 2-(difluoromethoxy)-N-[(1R,2S)-2-fluorocyclopropyl]-4-[7-(3-fluorooxetan-3-yl)imidazo[1,2-a]pyridin-3-yl]-6-methoxy-benzamide]",100 to 1000,10 to 100
"COc1cc(-c2cnn3cc(C(C)(C)O)ccc23)cc(OC(F)F)c1C(=O)N[C@@H]1C[C@@H]1F [Cpd 227, 2-(difluoromethoxy)-N-[(1R,2S)-2-fluorocyclopropyl]-4-[6-(1-hydroxy-1-methyl-ethyl)pyrazolo[1,5-a]pyridin-3-yl]-6-methoxy-benzamide]",100 to 1000,100 to 500
"COc1cc(-c2cnc3cc(C(C)(C)C#N)cnn23)cc(OC(F)F)c1C(=O)N[C@@H]1C[C@@H]1F [Cpd 228, 4-[7-(1-cyano-1-methyl-ethyl)imidazo[1,2-b]pyridazin-3-yl]-2-(difluoromethoxy)-N-[(1R,2S)-2-fluorocyclopropyl]-6-methoxy-benzamide]",100 to 1000,100 to 500
"COc1cc(-c2cnn3cc(C(C)(C)C#N)cnc23)cc(OC(F)F)c1C(=O)N[C@@H]1C[C@@H]1F [Cpd 231, 4-[6-(1-cyano-1-methyl-ethyl)pyrazolo[1,5-a]pyrimidin-3-yl]-2-(difluoromethoxy)-N-[(1R,2S)-2-fluorocyclopropyl]-6-methoxy-benzamide]",100 to 1000,> 500
"COc1cc(-c2cnn3cc(C4COCCO4)ccc23)cc(OC(F)F)c1C(=O)NC1CC1 (stereo not shown) [Cpd 232, N-cyclopropyl-2-(difluoromethoxy)-4-[6-(1,4-dioxan-2-yl)pyrazolo[1,5-a]pyridin-3-yl]-6-methoxy-benzamide]",100 to 1000,100 to 500
"COc1cc(-c2cnn3cc(C4(C#N)CC4)ccc23)cc(OC(F)F)c1C(=O)N[C@@H]1C[C@@H]1F [Cpd 235, 4-[6-(1-cyanocyclopropyl)pyrazolo[1,5-a]pyridin-3-yl]-2-(difluoromethoxy)-N-[(1R,2S)-2-fluorocyclopropyl]-6-methoxy-benzamide]",100 to 1000,10 to 100
"COc1cc(-c2cnn3cc(C4(N)CCC4)ccc23)cc(OC(F)F)c1C(=O)N[C@@H]1C[C@@H]1F [Cpd 261, 4-[6-(1-aminocyclobutyl)pyrazolo[1,5-a]pyridin-3-yl]-2-(difluoromethoxy)-N-[(1R,2S)-2-fluorocyclopropyl]-6-methoxy-benzamide]",1000 to 5000,> 500

# Now from value to compound:
EC50 [1] [nM],IC50 (SIK2) [nM],SMILES
100 to 1000,> 500,"COc1cc(-c2cnn3cc(C(C)(C)CO)ccc23)cc(OC(F)F)c1C(=O)NC1CC1 [Cpd 236, N-cyclopropyl-2-(difluoromethoxy)-4-[6-(2-hydroxy-1,1-dimethyl-ethyl)pyrazolo[1,5-a]pyridin-3-yl]-6-methoxy-benzamide]"
1000 to 5000,> 500,"COc1cc(-c2cnn3cc(C4(C#N)CCOCC4)ccc23)cc(OC(F)F)c1C(=O)NC1CC1 [Cpd 237, 4-[6-(4-cyanotetrahydropyran-4-yl)pyrazolo[1,5-a]pyridin-3-yl]-N-cyclopropyl-2-(difluoromethoxy)-6-methoxy-benzamide]"
100 to 1000,> 500,"COc1cc(-c2cnn3cc(C(C)(C)CO)ccc23)cc(OC(F)F)c1C(=O)N[C@@H]1C[C@@H]1F [Cpd 242, 2-(difluoromethoxy)-N-[(1R,2S)-2-fluorocyclopropyl]-4-[6-(2-hydroxy-1,1-dimethyl-ethyl)pyrazolo[1,5-a]pyridin-3-yl]-6-methoxy-benzamide]"
100 to 1000,> 500,"COc1cc(-c2cnn3cc(C4(C#N)CCOCC4)ccc23)cc(OC(F)F)c1C(=O)N[C@@H]1C[C@@H]1F [Cpd 243, 4-[6-(4-cyanotetrahydropyran-4-yl)pyrazolo[1,5-a]pyridin-3-yl]-2-(difluoromethoxy)-N-[(1R,2S)-2-fluorocyclopropyl]-6-methoxy-benzamide]"
100 to 1000,> 500,"COc1cc(-c2cnn3cc(C(C)(C)C#N)ccc23)cc(OC)c1C(=O)N[C@@H]1C[C@@H]1F [Cpd 245, 4-[6-(1-cyano-1-methyl-ethyl)pyrazolo[1,5-a]pyridin-3-yl]-N-[(1R,2S)-2-fluorocyclopropyl]-2,6-dimethoxy-benzamide]"
1000 to 5000,> 500,"COc1cc(-c2cnn3cc(C4(C(N)=O)CCC4)ccc23)cc(OC(F)F)c1C(=O)N[C@@H]1C[C@@H]1F [Cpd 254, 4-[6-(1-carbamoylcyclobutyl)pyrazolo[1,5-a]pyridin-3-yl]-2-(difluoromethoxy)-N-[(1R,2S)-2-fluorocyclopropyl]-6-methoxy-benzamide]"
1000 to 5000,> 500,"COc1cc(-c2cnn3cc(C(C)(C)N)ccc23)cc(OC(F)F)c1C(=O)N[C@@H]1C[C@@H]1F [Cpd 256, 4-[6-(1-amino-1-methyl-ethyl)pyrazolo[1,5-a]pyridin-3-yl]-2-(difluoromethoxy)-N-[(1R,2S)-2-fluorocyclopropyl]-6-methoxy-benzamide]"
100 to 1000,100 to 500,"COc1cc(-c2cnn3cc(C4(O)CCC4)ccc23)cc(OC(F)F)c1C(=O)N[C@@H]1C[C@@H]1F [Cpd 266, 2-(difluoromethoxy)-N-[(1R,2S)-2-fluorocyclopropyl]-4-[6-(1-hydroxycyclobutyl)pyrazolo[1,5-a]pyridin-3-yl]-6-methoxy-benzamide]"
100 to 1000,> 500,"COc1cc(-c2cnn3cc(C(C)(C)COS(C)(=O)=O)ccc23)cc(OC(F)F)c1C(=O)N[C@@H]1C[C@@H]1F [Cpd 267, [2-[3-[3-(difluoromethoxy)-4-[[(1R,2S)-2-fluorocyclopropyl]carbamoyl]-5-methoxy-phenyl]pyrazolo[1,5-a]pyridin-6-yl]-2-methyl-propyl]methanesulfonate]"
100 to 1000,> 500,"COc1cc(-c2cnn3cc(C(C)(C)CN4CCOCC4)ccc23)cc(OC(F)F)c1C(=O)N[C@@H]1C[C@@H]1F [Cpd 269, 2-(difluoromethoxy)-4-[6-(1,1-dimethyl-2-morpholino-ethyl)pyrazolo[1,5-a]pyridin-3-yl]-N-[(1R,2S)-2-fluorocyclopropyl]-6-methoxy-benzamide]"
